Measurements as given in PubChem BioAssay AID330 (DTP/NCI, 2004).
Where “and” joins values, the source holds several entries; their conditions need not be identical. Identical values can stand only once. Inconclusive results and toxic doses are left out. The calls were made as follows: active = survival T/C of 150% or more; inactive = T/C below 125% in these data.

Test system: P388 leukemia ip, CD2F1 mice, survival T/C
Experiment: NCI In Vivo Anticancer Drug Screen. Data for tumor model P388 Leukemia (intraperitoneal) in CD2F1 (CDF1) mice
Conditions: endpoint: median survival time, higher = longer survival
Method in brief: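 Mice carrying the transplanted tumor received test compound or vehicle. Survival was recorded in each group, and the value is the treated-group measurement divided by that of the vehicle-treated control group.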

[1] = dose: 12.5 mg/kg/injection, schedule: Q01DX009 (ip), vehicle: saline with Tween-80
[2] = dose: 25.0 mg/kg/injection, schedule: Q01DX009 (ip), vehicle: saline with Tween-80
[3] = dose: 50.0 mg/kg/injection, schedule: Q01DX009 (ip), vehicle: saline with Tween-80
[4] = dose: 100.0 mg/kg/injection, schedule: Q01DX009 (ip), vehicle: saline with Tween-80
[5] = dose: 60.0 mg/kg/injection, schedule: Q01DX005 (ip), vehicle: saline with Tween-80
[6] = dose: 120.0 mg/kg/injection, schedule: Q01DX005 (ip), vehicle: saline with Tween-80
[7] = dose: 240.0 mg/kg/injection, schedule: Q01DX005 (ip), vehicle: saline with Tween-80
[8] = dose: 12.5 mg/kg/injection, schedule: Q01DX005 (ip), vehicle: saline with Tween-80
[9] = dose: 25.0 mg/kg/injection, schedule: Q01DX005 (ip), vehicle: saline with Tween-80
[10] = dose: 50.0 mg/kg/injection, schedule: Q01DX005 (ip), vehicle: saline with Tween-80
[11] = dose: 100.0 mg/kg/injection, schedule: Q01DX005 (ip), vehicle: saline with Tween-80
[12] = dose: 200.0 mg/kg/injection, schedule: Q01DX005 (ip), vehicle: saline with Tween-80
[13] = dose: 50.0 mg/kg/injection, schedule: Q01DX009 (ip), vehicle: saline
[14] = dose: 100.0 mg/kg/injection, schedule: Q01DX009 (ip), vehicle: saline
[15] = dose: 200.0 mg/kg/injection, schedule: Q01DX009 (ip), vehicle: saline
[16] = dose: 100.0 mg/kg/injection, schedule: Q01DX001 (ip), vehicle: saline with Tween-80
[17] = dose: 200.0 mg/kg/injection, schedule: Q01DX001 (ip), vehicle: saline with Tween-80
[18] = dose: 400.0 mg/kg/injection, schedule: Q01DX001 (ip), vehicle: saline with Tween-80
[19] = dose: 100.0 mg/kg/injection, schedule: Q04DX002 (ip), vehicle: saline with Tween-80
[20] = dose: 200.0 mg/kg/injection, schedule: Q04DX002 (ip), vehicle: saline with Tween-80
[21] = dose: 400.0 mg/kg/injection, schedule: Q04DX002 (ip), vehicle: saline with Tween-80
[22] = dose: 50.0 mg/kg/injection, schedule: Q01DX009 (ip), vehicle: Klucel (hydroxypropylcellulose) (HPC)
[23] = dose: 100.0 mg/kg/injection, schedule: Q01DX009 (ip), vehicle: Klucel (hydroxypropylcellulose) (HPC)
[24] = dose: 200.0 mg/kg/injection, schedule: Q01DX009 (ip), vehicle: Klucel (hydroxypropylcellulose) (HPC)

Measured: T/C

Cc1ccc(/C=N/NC(N)=S)s1
inactive: [1] 100 % of control | [2] 108 % of control | [3] 107 % of control | [4] 106 % of control

CN1N=C(c2ccccc2O)/C(=C/c2c(-c3ccccc3O)[nH]n(C)c2=O)C1=O
inactive: [5] 94 % of control | [6] 86 % of control | [7] 87 % of control

C/C(=N\NC(=S)N1CCCCC1C)c1nccs1 (stereo unspecified)
inactive: [8] 100 % of control and 108 % of control | [9] 104 % of control and 111 % of control | [10] 112 % of control and 118 % of control

CC(SCCCCCCCCCCCCSC(C)C(=O)O)C(=O)O (stereo unspecified)
inactive: [10] 106 % of control | [11] 97 % of control | [12] 100 % of control

CC1(C)CCCC2C1=NOC2O (stereo unspecified)
inactive: [13] 100 % of control | [14] 96 % of control | [15] 100 % of control

CCOC(=O)c1c(-c2ccccc2)noc1N
inactive: dose: 25.0 mg/kg/injection, schedule: Q01DX005 (ip), vehicle: saline 100 % of control | dose: 50.0 mg/kg/injection, schedule: Q01DX005 (ip), vehicle: saline 100 % of control | dose: 100.0 mg/kg/injection, schedule: Q01DX005 (ip), vehicle: saline 98 % of control | dose: 200.0 mg/kg/injection, schedule: Q01DX005 (ip), vehicle: saline 100 % of control | dose: 400.0 mg/kg/injection, schedule: Q01DX005 (ip), vehicle: saline 104 % of control

CC1C[C@@H]2OC(=O)C(C)[C@@H]2C(O)[C@@]2(C)C(=O)C=CC12 (stereo partly specified)
inactive: dose: 1.38 mg/kg/injection, schedule: Q01DX005 (ip), vehicle: Klucel (hydroxypropylcellulose) (HPC) 104 % of control | dose: 2.75 mg/kg/injection, schedule: Q01DX005 (ip), vehicle: Klucel (hydroxypropylcellulose) (HPC) 104 % of control | dose: 5.5 mg/kg/injection, schedule: Q01DX005 (ip), vehicle: Klucel (hydroxypropylcellulose) (HPC) 112 % of control | dose: 11.0 mg/kg/injection, schedule: Q01DX005 (ip), vehicle: Klucel (hydroxypropylcellulose) (HPC) 111 % of control

C1CCN(CCC[Si]23OCCN(CCO2)CCO3)CC1
inactive: [10] 102 % of control | [11] 108 % of control | [12] 106 % of control

O=C1CN(c2ccccc2)C(=O)CN1/N=C/c1ccco1
inactive: [8] 100 % of control | [9] 95 % of control | [10] 100 % of control and 94 % of control | [11] 98 % of control | [12] 103 % of control

COc1cc2c(cc1CN(C)C)[nH]c1c3ccc(Cl)cc3ncc21
inactive: [8] 104 % of control | [9] 103 % of control | [10] 109 % of control and 112 % of control

COc1ccc2c(C)cc(N/N=C/c3ccc([N+](=O)[O-])o3)nc2c1
inactive: dose: 50.0 mg/kg/injection, schedule: Q01DX005 (ip), vehicle: Klucel (hydroxypropylcellulose) (HPC) 100 % of control | dose: 100.0 mg/kg/injection, schedule: Q01DX005 (ip), vehicle: Klucel (hydroxypropylcellulose) (HPC) 101 % of control | dose: 200.0 mg/kg/injection, schedule: Q01DX005 (ip), vehicle: Klucel (hydroxypropylcellulose) (HPC) 90 % of control

CCCC(Cc1ccccc1)C(=O)O (stereo unspecified)
inactive: [16] 123 % of control | [17] 108 % of control | [18] 124 % of control

O=[N+]([O-])c1ccc(N/N=C\c2c(Cl)n(-c3ccccc3)c3ccccc23)c([N+](=O)[O-])c1
inactive: [9] 106 % of control | [10] 100 % of control and 105 % of control | [11] 109 % of control and 117 % of control | dose: 100.0 mg/kg/injection, schedule: Q04DX003 (ip), vehicle: saline with Tween-80 90 % of control | [12] 109 % of control and 114 % of control | dose: 400.0 mg/kg/injection, schedule: Q04DX003 (ip), vehicle: saline with Tween-80 88 % of control

CC1(C)COP(=O)(c2ccccc2)N1 (stereo unspecified)
inactive: [5] 103 % of control | [6] 107 % of control | [7] 101 % of control

CC(c1ccccc1)[P+](c1ccccc1)(c1ccccc1)c1ccccc1 (stereo unspecified)
inactive: dose: 0.78 mg/kg/injection, schedule: Q01DX009 (ip), vehicle: saline 112 % of control and 93 % of control | dose: 1.56 mg/kg/injection, schedule: Q01DX009 (ip), vehicle: saline 109 % of control and 118 % of control | dose: 3.13 mg/kg/injection, schedule: Q01DX009 (ip), vehicle: saline 118 % of control and 121 % of control

Nc1cccc(-n2ccnc2)c1
inactive: [19] 100 % of control | [20] 93 % of control | [21] 90 % of control

C=CC1(OC)CC1C(=O)OCC (stereo unspecified)
inactive: dose: 43.0 mg/kg/injection, schedule: Q01DX005 (ip), vehicle: Klucel (hydroxypropylcellulose) (HPC) 99 % of control | dose: 86.0 mg/kg/injection, schedule: Q01DX005 (ip), vehicle: Klucel (hydroxypropylcellulose) (HPC) 112 % of control | dose: 172.0 mg/kg/injection, schedule: Q01DX005 (ip), vehicle: Klucel (hydroxypropylcellulose) (HPC) 97 % of control

CCN(CC)C(C)(C)C(=O)/C=C/c1ccc(C)cc1
inactive: [5] 107 % of control | [6] 103 % of control

C=C(CCC(C(=O)O)C1C(O)CC2(C)C3=C(CCC12C)C1(C)CCC(OC(C)=O)C(C)(C)C1CC3)C(C)C (stereo unspecified)
inactive: [1] 100 % of control | [2] 96 % of control | [3] 98 % of control

COc1cc(/C=C/c2cc(OC)c(OC)c(OC)c2)oc(=O)c1
inactive: [22] 98 % of control | [23] 104 % of control | [24] 99 % of control

Nc1ncc(CCCCc2ccccc2)c(=O)[nH]1
inactive: [16] 100 % of control | [17] 104 % of control | [18] 100 % of control

C#CC[N+]1(C)CCC=C(C(=O)OC)C1 (stereo unspecified)
inactive: dose: 25.0 mg/kg/injection, schedule: Q01DX009 (ip), vehicle: saline 97 % of control

CCN(c1ccccc1)S(=O)(=O)c1cc(N)ccc1C
inactive: dose: 25.0 mg/kg/injection, schedule: Q01DX009 (ip), vehicle: Klucel (hydroxypropylcellulose) (HPC) 101 % of control | [22] 100 % of control | [23] 110 % of control | [24] 97 % of control | dose: 400.0 mg/kg/injection, schedule: Q01DX009 (ip), vehicle: Klucel (hydroxypropylcellulose) (HPC) 93 % of control

Cc1cc(S(=O)(=O)[O-])ccc1-n1nc(C)[c-](N=Nc2cc(S(=O)(=O)[O-])ccc2C(=O)[O-])c1=O.[Cr+3].[Na+].[OH-] (stereo unspecified)
inactive: [13] 104 % of control | [14] 104 % of control | [15] 108 % of control

FC(F)(F)c1ccc(NC(=S)SCc2ccc3c(c2)OCO3)cc1
inactive: dose: 50.0 mg/kg/injection, schedule: Q01DX009 (ip), vehicle: suspension in saline 98 % of control | dose: 100.0 mg/kg/injection, schedule: Q01DX009 (ip), vehicle: suspension in saline 93 % of control

CC1(C)OC2CC(=O)OCC23C1CC(O)C1(C)C3CCC2(C)C(c3ccoc3)OC(=O)C3OC321 (stereo unspecified)
inactive: dose: 0.75 mg/kg/injection, schedule: Q01DX009 (ip), vehicle: saline + alcohol 99 % of control | dose: 1.5 mg/kg/injection, schedule: Q01DX009 (ip), vehicle: saline + alcohol 99 % of control | dose: 3.0 mg/kg/injection, schedule: Q01DX009 (ip), vehicle: saline + alcohol 97 % of control | dose: 6.0 mg/kg/injection, schedule: Q01DX009 (ip), vehicle: saline + alcohol 97 % of control | [19] 103 % of control and 98 % of control | [20] 101 % of control and 100 % of control | [21] 91 % of control and 92 % of control

CC1=NN(C(=O)c2ccncc2)C(=O)C1N=Nc1ccc(S(=O)(=O)Nc2nc(C)cc(C)n2)cc1 (stereo unspecified)
inactive: [3] 104 % of control | [4] 95 % of control | dose: 200.0 mg/kg/injection, schedule: Q01DX009 (ip), vehicle: saline with Tween-80 95 % of control

O=C(O)c1ccccc1N=Nc1ccc(N(CCCl)CCCl)cc1
inactive: dose: 3.13 mg/kg/injection, schedule: Q04DX003 (ip), vehicle: Klucel (hydroxypropylcellulose) (HPC) 122 % of control | [3] 99 % of control
active: dose: 6.25 mg/kg/injection, schedule: Q01DX009 (ip), vehicle: saline with Tween-80 166 % of control | [1] 152 % of control and 154 % of control | dose: 12.5 mg/kg/injection, schedule: Q04DX003 (ip), vehicle: Klucel (hydroxypropylcellulose) (HPC) 177 % of control | [2] 162 % of control and 166 % of control

CN(C)CCCNCC#CCNCCCN(C)C
inactive: [13] 100 % of control | [14] 105 % of control | [15] 105 % of control
